Among the test systems are HL-60; OVCAR-5; BT-549; KM12; Malme-3M; A549; SK-OV-3; PC-3; MDA-MB-435; MCF7; LOX IMVI; SW-620; SF-295; MOLT-4; U-251; SK-MEL-28; SN12C; HCC 2998; IGROV-1; Hs-578T.
Test in all cases: growth of human tumour cells (NCI), 48 h

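Method: 48-hour compound exposure of cells in 96-well plates, five concentrations, linear interpolation of endpoints. Abbreviation: GI50, concentration required for 50% inhibition of growth.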 Calls of active or inactive are those of the source. No stated cut-off is given here; in the data, active = GI50 up to about 1.1 µM and inactive = higher. Bounds are passed on as bounds.

For `CCCCS/C(=C(/C#N)C(N)=O)c1cc2c([nH]1)CCCC2`, the GI50 in the assay on HL-60 was 3.67 µM (inactive); in the assay with OVCAR-5 it was 29 µM (inactive); with BT-549, 11.1 µM (inactive); with KM12, 5.78 µM (inactive); in the assay on Malme-3M it was 11.4 µM (inactive); in the assay with A549 it was 21.9 µM (inactive). Further, the GI50 was 22.9 µM (inactive) in the assay on SK-OV-3; 11.4 µM (inactive) in the assay with PC-3; 3.36 µM (inactive) in the assay with MDA-MB-435; 10.3 µM (inactive) in the assay on MCF7; 8.93 µM (inactive) in the assay with LOX IMVI; 6.12 µM (inactive) in the assay on SW-620. Also, the GI50 is 12.4 µM (inactive) with SF-295; 10 µM (inactive) with MOLT-4; 15.7 µM (inactive) in the assay on U-251; 14 µM (inactive) in the assay on SK-MEL-28; 23.9 µM (inactive) in the assay with SN12C; 11.4 µM (inactive) in the assay with HCC 2998.
With `Oc1nc(S)nc2c1CN(CCCN1CCOCC1)CN2`, the GI50 was > 100 µM (inactive) with OVCAR-5; 75.2 µM (inactive) with BT-549; 28.2 µM (inactive) in the assay with KM12; 40.6 µM (inactive) in the assay on IGROV-1; 19.7 µM (inactive) in the assay on Malme-3M; 38.6 µM (inactive) in the assay with A549. In addition, the GI50 in the assay with PC-3 is 22.1 µM (inactive); with MDA-MB-435 it was 22.5 µM (inactive); with MCF7, 34.7 µM (inactive); with Hs-578T, > 100 µM (inactive); in the assay on LOX IMVI it was 24.7 µM (inactive); with SW-620, 32 µM (inactive). Moreover, the GI50 is 28.2 µM (inactive) with SF-295; 28.2 µM (inactive) with MOLT-4; 33.5 µM (inactive) in the assay on U-251; > 100 µM (inactive) in the assay on SK-MEL-28; 46.7 µM (inactive) in the assay on SN12C; 21.9 µM (inactive) with HCC 2998.
As to `Cc1cc(NS(=O)(=O)c2ccc(NC(NC(=O)OC(C)C)(C(F)(F)F)C(F)(F)F)cc2)nc(C)n1`, the GI50 with HL-60, in the assay on OVCAR-5, in the assay with KM12, with IGROV-1, with Malme-3M and in the assay with A549 was > 100 µM (inactive) in each case. Moreover, the GI50 in the assay with SK-OV-3, in the assay with PC-3, with MDA-MB-435, in the assay on MCF7, in the assay with Hs-578T and in the assay on LOX IMVI was > 100 µM (inactive) throughout. Further, the GI50 in the assay on SW-620, in the assay on SF-295, in the assay on MOLT-4, in the assay with U-251, in the assay on SK-MEL-28 and in the assay with SN12C was > 100 µM (inactive) throughout. Further, in the assay on HCC 2998, the GI50 is > 100 µM (inactive).
Turning to `O=[N+]([O-])c1ccc(/C=N/Nc2nc3ccccc3[nH]2)o1`, the GI50 in the assay on HL-60 is 1.31 µM (inactive); in the assay on OVCAR-5, 23.1 µM (inactive); with BT-549, 15 µM (inactive); in the assay on KM12, 10.6 µM (inactive); with IGROV-1 it was 12.6 µM (inactive); with Malme-3M, 13.8 µM (inactive). Also, the GI50 was 12.2 µM (inactive) in the assay on A549; 33.7 µM (inactive) in the assay on SK-OV-3; 15.3 µM (inactive) in the assay on PC-3; 4.45 µM (inactive) in the assay with MDA-MB-435; 33.3 µM (inactive) in the assay on Hs-578T; 13.9 µM (inactive) in the assay on LOX IMVI. For the same molecule, the GI50 is 10.8 µM (inactive) in the assay on SW-620; 16 µM (inactive) with SF-295; 11.2 µM (inactive) in the assay with MOLT-4; 34 µM (inactive) in the assay on U-251; 8.91 µM (inactive) in the assay with SK-MEL-28; 15.7 µM (inactive) with SN12C.
As for `COc1ccc(/C=C2\N=C(SC)N(CN3CCCCC3)C2=O)cc1`, the GI50 with OVCAR-5, with KM12, in the assay with IGROV-1, in the assay on Malme-3M, in the assay on A549 and in the assay with SK-OV-3 was > 100 µM (inactive) each time. Moreover, the GI50 with PC-3, with MDA-MB-435, in the assay on MCF7, with Hs-578T, in the assay with LOX IMVI and with SW-620 was > 100 µM (inactive) throughout. The GI50 in the assay with SF-295, in the assay on MOLT-4, in the assay on U-251, with SK-MEL-28 and in the assay with SN12C was > 100 µM (inactive) in each case.
Take `CN1CCN(C(=S)N(C)C(=O)c2ccc(Cl)cc2)CC1`: the GI50 in the assay with HL-60, with OVCAR-5, with BT-549, in the assay with KM12, in the assay with IGROV-1 and with Malme-3M was > 100 µM (inactive) in each case. The GI50 in the assay on A549, in the assay with MDA-MB-435, in the assay with MCF7, in the assay with Hs-578T, with LOX IMVI and in the assay with SW-620 was > 100 µM (inactive) each time. The GI50 in the assay on SF-295, in the assay with MOLT-4, with U-251, in the assay with SK-MEL-28, with SN12C and in the assay on HCC 2998 was > 100 µM (inactive) each time.
Take `NC(CCCCNC(=O)OCc1ccccc1)C(=O)NC(CCCCNC(=O)OCc1ccccc1)C(=O)ON1C(=O)CCC1=O` (stereo unspecified): the GI50 with HL-60 is > 100 µM (inactive); in the assay on OVCAR-5 it was > 100 µM (inactive); in the assay with BT-549, > 100 µM (inactive); with KM12, > 100 µM (inactive); in the assay with IGROV-1, > 100 µM (inactive); with Malme-3M, 61.4 µM (inactive). In addition, the GI50 in the assay with A549, with PC-3, in the assay with MCF7, in the assay with Hs-578T, in the assay with SW-620 and in the assay with MOLT-4 was > 100 µM (inactive) throughout. Moreover, the GI50 in the assay with U-251, in the assay on SK-MEL-28, with SN12C and in the assay with HCC 2998 was > 100 µM (inactive) in each case.
On to `CC(C)(C)[Si](C)(C)OCC1CCC(n2cnc3c(=O)[nH]cnc32)O1` (stereo unspecified), for which the GI50 with HL-60 is 74.8 µM (inactive); in the assay on OVCAR-5, > 100 µM (inactive); in the assay on KM12, > 100 µM (inactive); in the assay with IGROV-1, > 100 µM (inactive); in the assay with Malme-3M, 78.9 µM (inactive); in the assay with A549, > 100 µM (inactive). In addition, the GI50 in the assay on SK-OV-3 was > 100 µM (inactive); in the assay with PC-3, > 100 µM (inactive); in the assay with MDA-MB-435, > 100 µM (inactive); in the assay with MCF7, > 100 µM (inactive); in the assay on Hs-578T, 58.2 µM (inactive); in the assay with LOX IMVI, > 100 µM (inactive). Besides, the GI50 was > 100 µM (inactive) with SW-620; > 100 µM (inactive) with SF-295; 30.2 µM (inactive) in the assay with MOLT-4; > 100 µM (inactive) with U-251; > 100 µM (inactive) in the assay on SK-MEL-28; > 100 µM (inactive) in the assay on SN12C. In addition, in the assay on HCC 2998, the GI50 is > 100 µM (inactive).
With `Cc1ccccc1NC(=N)Nc1ccccc1C`, the GI50 in the assay with HL-60, in the assay on OVCAR-5, with KM12, with IGROV-1, in the assay on Malme-3M and in the assay with A549 was > 100 µM (inactive) throughout. Further, the GI50 in the assay on SK-OV-3, in the assay on PC-3, with MDA-MB-435, with MCF7, with Hs-578T and in the assay on LOX IMVI was > 100 µM (inactive) in each case. Also, the GI50 in the assay with SW-620, in the assay on SF-295, with MOLT-4, in the assay on U-251, in the assay on SK-MEL-28 and with SN12C was > 100 µM (inactive) each time. In addition, the GI50 in the assay with HCC 2998 is 21.9 µM (inactive).
Regarding `CCOc1ccc(NCc2cc(OC)c(OC)c(OC)c2)cc1`, the GI50 in the assay on HL-60 was 0.257 µM (active); with BT-549 it was 0.12 µM (active); with KM12, 0.276 µM (active); in the assay with IGROV-1 it was 1.49 µM (inactive); in the assay on A549, 0.847 µM (active); with SK-OV-3, 0.706 µM (active). Moreover, the GI50 in the assay with PC-3 was 1.5 µM (inactive); in the assay with MCF7, 0.435 µM (active); in the assay on Hs-578T, 1.38 µM (inactive); with LOX IMVI, 0.643 µM (active); in the assay on SW-620, 0.35 µM (active); with SF-295, 0.306 µM (active). Further, the GI50 in the assay on MOLT-4 is 0.582 µM (active); in the assay on U-251, 0.513 µM (active); with SK-MEL-28 it was 2.57 µM (inactive); with HCC 2998, 0.771 µM (active).
Turning to `O=C(NC1CCN(Cc2ccccc2)CC1)c1cccc(I)c1`, the GI50 is 34.4 µM (inactive) with HL-60; 30.3 µM (inactive) in the assay with OVCAR-5; 42.5 µM (inactive) in the assay on BT-549; 16.5 µM (inactive) in the assay on KM12; 39 µM (inactive) with IGROV-1; 17.1 µM (inactive) in the assay on Malme-3M. In addition, the GI50 in the assay with A549 is 31.9 µM (inactive); in the assay with SK-OV-3, 22.2 µM (inactive); in the assay with PC-3, 18.5 µM (inactive); in the assay with MDA-MB-435, 17.3 µM (inactive); with Hs-578T, 29 µM (inactive); with LOX IMVI, 19.6 µM (inactive). For the same molecule, the GI50 in the assay with SW-620 is 17.1 µM (inactive); with SF-295 it was 18.3 µM (inactive); with MOLT-4, 13.9 µM (inactive); with U-251 it was 23 µM (inactive); with SK-MEL-28, 18 µM (inactive); in the assay on SN12C it was 60.5 µM (inactive).
